The subject of data set [1] is pepsin. As to the kind of experiment: Proteolysis of hPTH(1-34) by pepsin at various pH values. As to conditions: 13.5 μg/ml hPTH(1-34), 150 μg/ml pepsin, 37° C., media pH 2-7. The data set is classed as in vitro ADME. Here is the method: The effect of pH on peptide proteolysis by pepsin was determined by incubating 13.5 μg/ml human parathyroid hormone (1-34) (hPTH(1-34)) with 150 μg/ml pepsin, at various pH values, and determining the percentage of hPTH(1-34) which remained. The amount of hPTH(1-34) remaining upon addition to 150 μg/ml pepsin at 37° C., was determined in media with different pH values, followed by immediate (10 second) vortex and centrifugation for 3 minutes at 4° C., 4000 RCF. The following media were used: simulated gastric fluid (pH 2), prepared from 0.01 M HCl and NaCl; phthalate buffer (pH 4 or 5); and phosphate buffer (pH 6 or 7).

Data set [2] is described as follows: pH upon addition of test substance to 0.1 M HCl solution (pH 1.2), pH meter. The data set is classed as physicochemical. Here is the method:
The solution pH was determined using an MP-103 pH-meter (MRC, Israel) equipped with ELC-10-00 electrode (MRC, Israel) or with a thin electrode HI1083 (HANNA instruments Inc.), shortly after dissolution and up to 26 hours later in order to ensure that the pH remained stable. The highest pH value obtained during the experimental time period was recorded in order to compare the acid-neutralizing capacity of each substance.
SNAC and the basic polymers sodium alginate, sodium carboxymethylcellulose in non-crosslinked (Na-CMC) and crosslinked (croscarmellose sodium, CCS) forms, and sodium starch glycolate (SSG) were dissolved in various volumes of 0.1 M HCl solution (pH 1.2) at concentrations of 1, 2, 4, 10, 20, 50, 100 and 150 mg/ml, and the solution pH was determined using an MP-103 pH-meter (MRC, Israel) equipped with ELC-10-00 electrode (MRC, Israel), as described in the Materials and Methods section hereinabove.
In order to obtain a beneficial rise in pH with a reduced loss of the active form of the absorption enhancer, the effect of various concentrations of different polymers containing carboxylate groups (sodium alginate, sodium starch glycolate, sodium carboxymethylcellulose, and croscarmellose sodium) on pH upon addition to a 0.1 M HCl solution (pH 1.2) was also evaluated. FIG. 3A presents pH values determined using an MP-103 pH-meter (MRC, Israel) equipped with ELC-10-00 electrode (MRC, Israel) and FIG. 3B presents pH values determined using an MP-103 pH-meter (MRC, Israel) equipped with a thin electrode HI1083 (HANNA instruments Inc.).

Consider two molecules from US20260124281A1, “FORMULATIONS COMPRISING ACID-NEUTRALIZING POLYMER FOR ORAL ADMINISTRATION OF PARATHYROID HORMONE” (Entera Bio Ltd., priority 2022, published 2026).

For the molecule `CC[C@H](C)[C@H](NC(=O)[C@H](CCC(=O)O)NC(=O)[C@H](CO)NC(=O)[C@@H](NC(=O)[C@@H](N)CO)C(C)C)C(=O)N[C@@H](CCC(N)=O)C(=O)N[C@@H](CC(C)C)C(=O)N[C@@H](CCSC)C(=O)N[C@@H](Cc1cnc[nH]1)C(=O)N[C@@H](CC(N)=O)C(=O)N[C@@H](CC(C)C)C(=O)NCC(=O)N[C@@H](CCCCN)C(=O)N[C@@H](Cc1cnc[nH]1)C(=O)N[C@@H](CC(C)C)C(=O)N[C@@H](CC(N)=O)C(=O)N[C@@H](CO)C(=O)N[C@@H](CCSC)C(=O)N[C@@H](CCC(=O)O)C(=O)N[C@@H](CCCN=C(N)N)C(=O)N[C@H](C(=O)N[C@@H](CCC(=O)O)C(=O)N[C@@H](Cc1c[nH]c2ccccc12)C(=O)N[C@@H](CC(C)C)C(=O)N[C@@H](CCCN=C(N)N)C(=O)N[C@@H](CCCCN)C(=O)N[C@@H](CCCCN)C(=O)N[C@@H](CC(C)C)C(=O)N[C@@H](CCC(N)=O)C(=O)N[C@@H](CC(=O)O)C(=O)N[C@H](C(=O)N[C@@H](Cc1cnc[nH]1)C(=O)N[C@@H](CC(N)=O)C(=O)N[C@@H](Cc1ccccc1)C(=O)O)C(C)C)C(C)C` [hPTH(1-34), teriparatide], the “pH at which proteolysis of hPTH(1-34) by pepsin was inhibited” value in data set [1] is on record as at least 6.

For `O=C(O)CCCCCCCNC(=O)c1ccccc1O` [SNAC, sodium 8-N-(2-hydroxybenzoyl)aminocaprylate], the results for the “pH 5 minutes after dissolution” value in data set [2] (10 mg/ml SNAC added to HCl solution (pH 1.2)), in data set [2] (20 mg/ml SNAC added to HCl solution (pH 1.2)) and in data set [2] (100 mg/ml SNAC added to HCl solution (pH 1.2)) were “about 1.5”, 6.5 and “about 7.5”, respectively. Moreover, in data set [2] (HCl solution (pH 1.2)), the “dissolution upon addition to HCl solution” value was “dissolved rapidly”.
